Assay results published in patent US8198273B2, “Compounds and methods for kinase modulation, and indications therefor” (Plexxikon Inc., priority 2009, dated 2012).

Legend:
[1] = tested on: A375 melanoma cells (B-Raf V600E); assay: A375 cell growth inhibition (ATPlite); assay type: cell-based; conditions: Homo sapiens, A-375, 72 h; A375, 3 days incubation
Method: (§1) Compounds are assessed in a variety of cell based assays. For example human cell lines with B-Raf V600E mutation (A375 melanoma, SKMEL3 melanoma, and COL0205 colon adenocarcinoma), as well as tumorigenic cell lines with wild-type B-RAF (SW620 colon adenocarcinoma) or with Ras mutations (SKMEL2 melanoma and IPC298 melanoma). Similar assays may be used to assess additional tumorigenic cell lines with Ras mutations, including, but not limited to, M202, M207, M243, M244, M296, S117, HCT116, HCT15, DLD1, MiaPaCa, A549, NCI-H23, NCI-H460, HOP62, MDA-MB231, Hs-578T, HL60, MOLT-4, and CCRF-CEM.
(§2) On day 1, cells are counted, then centrifuged in a conical tube for 5 minutes at 1000 rpm. The supernatant is removed and cells are re-suspended as follows: • SW620 (ATCC catalog #CCL-27): resuspend in Leibovitz's L-15 medium, 2 mM L-glutamine, 10% fetal bovine serum to 6×10^4 cells/mL. • A375 (ATCC catalog #CRL-1619): resuspend in Dulbecco's modified Eagle's medium, 4 mM L-glutamine, 4.5 g/L D-glucose, 10% fetal bovine serum to 6×10^4 cells/mL. • COL0205 (ATCC catalog #CCL-222): resuspend in RPMI 1640, 2 mM L-glutamine, 1.5 g/L sodium bicarbonate, 4.5 g/L D-glucose, 10 mM HEPES, 1.0 mM sodium pyruvate, 10% fetal bovine serum to 6×10^4 cells/mL. • SKMEL2 (ATCC catalog #HTB-68): resuspend in Minimum Eagle essential medium, 2 mM L-glutamine, 1.5 g/L sodium bicarbonate, 0.1 mM non-essential amino acids, 1.0 mM sodium pyruvate, 10% fetal bovine serum to 6×10^4 cells/mL. • SKMEL3 (ATCC catalog #HTB-69): resuspend in McCoy's 5A medium, 1.5 mM L-glutamine, 15% fetal bovine serum to 6×10^4 cells/mL. • IPC298 (DSMZ catalog #ACC 251): resuspend in RPMI 1640, 2 mM L-glutamine, 10% fetal bovine serum to 6×10^4 cells/mL.
(§3) The cells are plated, 50 μL in each well of a 96-well dish (Corning 3610) and incubated at 37° C. in 5% CO2 overnight, cells plated to a final concentration of cells as follows:
(§4) On day 2, compound at a maximum concentration of 5 mM is serially diluted 1:3 for a total of 8 point titration with DMSO as a control. A 1 μL aliquot of each dilution point and control is added to 249 μL growth media and 50 μL is added to a well containing cells, providing 10 μM compound at the maximum concentration point. The cells are incubated for 3 days at 37° C. in 5% CO2.
(§5) On day 5, ATPlite 1 step Luminescence Assay System (Perkin Elmer #6016739) is brought to room temperature along with the cell cultures. ATPlite is added 25 μL to each well, shake for 2 minutes, and the cells are incubated at room temperature for 10 minutes, then luminescence is read on Safire reader. The measured luminescence correlates directly with cell number, such that the reading as a function of compound concentration is used to determine the IC50 value.
(§6) It is understood that the results of these assays may vary as assay conditions are varied. Inhibition levels determined under the conditions described herein represent a relative activity for the compounds tested under the specific conditions employed. The cell based assays are likely to show variability due to the complexity of the system and the sensitivity thereof to any changes in the assay conditions. […] Results for compounds that are tested and show substantially no inhibition below the highest tested concentration are represented as “-” in the tables below. In some instances, the compounds were not tested in all of the assays, or assay results were not valid, as indicated by NA in the tables below.

[2] = Relative solubility by turbidity in aqueous buffers of varying pH; assay type: physicochemical
Method: As an indication of relative solubility, the turbidity of compounds in aqueous solutions is assessed. To assess possible compound properties in different physiological compartments, such as stomach, intestine, and blood, a series of aqueous buffers with varying pH is used. Thus each compound is diluted into four different physiologically relevant buffers and solution turbidity is measured by spectrophotometry.
Compounds are dissolved at a concentration of 25 mM in dimethyl sulfoxide, then serially diluted 1:1 into a 96 well plate, diluting 10 times in pure dimethyl sulfoxide, with the final well of each row a dimethyl sulfoxide blank. In an assay plate, 99 μL of appropriate buffer is added to each well, and 1 μL of each sample dilution is added to the buffer, achieving a range of final total concentrations in aqueous solutions having different pH. The buffers used are Simulated Gastric Fluid (SGF-pH 1.5) 0.5M NaCl, pH 1.5; Simulated Intestinal fluid (SIF-pH 4.5 and pH 6.8) 0.05M NaH2PO4, pH 4.5 and 6.8; and Hepes Buffer (HEPES-pH 7.4) 10 mM HEPES, 150 mM NaCl, pH 7.4. Control compounds pyrene, estriol and propranolol HCl are also assessed. Plates are spun and then mixed for 1 minute, and the absorbance is read using a Tecan Safire II to read wavelengths in the visible range (490, 535, and 650 nm) at four locations per well, reflecting the degree of turbidity present. The average optical density for each wavelength in each well is graphed vs. compound concentration, and the concentration at which the curve crosses a threshold O.D. of 0.01 for each wavelength is reported as the endpoint turbidity assay result. The average of the three wavelengths is used to compare turbidity of compounds. Compounds are considered to have low solubility if the threshold concentration is <31.3 04, moderate solubility if the threshold concentration is 31.3 μM to 250 μM, and high solubility if the threshold concentration is >250 μM.

[3] = tested on: SW620 colon adenocarcinoma cells (wild-type B-RAF); assay: SW620 cell growth inhibition (ATPlite); assay type: cell-based; conditions: Homo sapiens, SW-620, 72 h; SW620, 3 days incubation
Method: as §1, §2, §3, §4, §5, §6

[4] = tested on: SKMEL2 melanoma cells (Ras mutation); assay: SKMEL2 cell growth inhibition (ATPlite); assay type: cell-based; conditions: Homo sapiens, SK-MEL-2, 72 h; SKMEL2, 3 days incubation
Method: as §1, §2, §3
SKMEL2: 2,000 cells per well.
as §4, §5, §6

CYP2D6 = CYP2D6 (Homo sapiens, UniProt P10635); assay: CYP2D6 inhibition (fluorescent substrate); assay type: in vitro ADME; conditions: CYP2D6, AMMC substrate; read-out: Cyp IC50 2D6
Sequence of CYP2D6 (P10635 whole entry): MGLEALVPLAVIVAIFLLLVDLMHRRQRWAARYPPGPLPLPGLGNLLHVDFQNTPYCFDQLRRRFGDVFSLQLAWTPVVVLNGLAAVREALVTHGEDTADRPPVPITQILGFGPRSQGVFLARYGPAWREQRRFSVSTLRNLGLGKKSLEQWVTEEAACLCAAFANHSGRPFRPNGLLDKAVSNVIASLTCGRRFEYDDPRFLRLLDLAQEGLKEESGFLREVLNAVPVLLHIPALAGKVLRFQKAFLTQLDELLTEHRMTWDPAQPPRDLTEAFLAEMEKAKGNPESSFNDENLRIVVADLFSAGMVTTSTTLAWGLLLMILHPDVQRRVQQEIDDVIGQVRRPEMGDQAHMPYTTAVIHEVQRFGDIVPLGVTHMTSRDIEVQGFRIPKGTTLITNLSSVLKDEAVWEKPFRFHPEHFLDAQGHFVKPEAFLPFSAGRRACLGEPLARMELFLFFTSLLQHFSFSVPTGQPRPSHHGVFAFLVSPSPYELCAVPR
Method: (§7) CYP (Cytochrome P450) enzymes are the major drug metabolizing enzymes present in the liver. The inhibition of CYP enzyme activity (IC50) for each of CYP1A2, CYP2C19, CYP2C9, CYP2D6, CYP3A4(BFC) and CYP3A4(BQ) is determined for compounds, where inhibition of metabolism of a known substrate leads to a decrease in the fluorescence of the metabolized product. The fluorescence of the product is monitored as a function of compound concentration.
(§8) Compounds are dissolved in dimethyl sulfoxide to a concentration of 100 mM. These are diluted 1 μL into 82 μL of acetonitrile. […] These are then serially diluted 1:1 (160 μL to 160 μL co-factor mix) for a total of 10 points. A 10 μL aliquot of this final mixture is dispensed into 384 well assay plates and incubated for 10 minutes at 37° C. […] Assay plates are incubated at 37° C. […] The signal versus compound concentration is used to determine the IC50. The enzymes and substrates for this assay are obtained from BD Biosciences.

B-Raf V600E = B-Raf V600E (Homo sapiens, UniProt P15056, V600E); assay: B-Raf V600E biochemical kinase inhibition (AlphaScreen, biotin-MEK1 substrate); conditions: 100 μM ATP
Sequence of B-Raf V600E (P15056 whole entry V600E): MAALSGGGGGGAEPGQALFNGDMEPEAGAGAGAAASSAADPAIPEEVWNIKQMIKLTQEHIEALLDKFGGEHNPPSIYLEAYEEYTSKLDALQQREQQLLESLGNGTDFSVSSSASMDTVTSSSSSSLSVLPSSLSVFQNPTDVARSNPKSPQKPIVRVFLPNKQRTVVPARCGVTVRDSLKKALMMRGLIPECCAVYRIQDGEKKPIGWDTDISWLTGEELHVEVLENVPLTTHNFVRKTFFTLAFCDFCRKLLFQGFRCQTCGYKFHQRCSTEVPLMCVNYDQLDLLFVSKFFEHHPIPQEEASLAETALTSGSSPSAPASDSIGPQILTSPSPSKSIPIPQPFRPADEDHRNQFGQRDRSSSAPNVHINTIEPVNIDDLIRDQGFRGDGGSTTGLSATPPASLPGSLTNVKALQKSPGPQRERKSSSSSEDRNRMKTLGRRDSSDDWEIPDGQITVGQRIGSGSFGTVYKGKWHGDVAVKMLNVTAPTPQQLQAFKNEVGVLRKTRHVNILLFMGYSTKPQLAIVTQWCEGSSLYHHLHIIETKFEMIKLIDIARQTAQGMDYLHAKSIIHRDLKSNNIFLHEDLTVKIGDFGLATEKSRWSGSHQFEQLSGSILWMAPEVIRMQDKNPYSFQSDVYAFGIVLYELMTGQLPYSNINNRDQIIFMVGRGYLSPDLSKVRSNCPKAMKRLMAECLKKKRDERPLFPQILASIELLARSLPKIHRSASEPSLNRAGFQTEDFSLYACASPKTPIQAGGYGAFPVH
Method: (§9) Compounds to be tested are diluted in dimethyl sulfoxide to a concentration of 0.1 mM. These are serially diluted 15 μL into 30 μL of dimethyl sulfoxide seven times in 96 well plates for a total of 8 dilution points, and for each dilution point 1 μL is added to a well of an assay plate. […] The reaction is started with addition of 10 μL of 200 μM ATP (i.e. final 100 μM ATP). […] The plates are incubated for 3 hours at room temperature and read on Envision reader (Perkin Elmer). […] The signal vs. compound concentration is used to determine the IC50.

CYP2C9 = CYP2C9 (Homo sapiens, UniProt P11712); assay: CYP2C9 inhibition (fluorescent substrate); assay type: in vitro ADME; conditions: CYP2C9, MFC substrate; read-out: Cyp IC50 2C9
Sequence of CYP2C9 (P11712 whole entry): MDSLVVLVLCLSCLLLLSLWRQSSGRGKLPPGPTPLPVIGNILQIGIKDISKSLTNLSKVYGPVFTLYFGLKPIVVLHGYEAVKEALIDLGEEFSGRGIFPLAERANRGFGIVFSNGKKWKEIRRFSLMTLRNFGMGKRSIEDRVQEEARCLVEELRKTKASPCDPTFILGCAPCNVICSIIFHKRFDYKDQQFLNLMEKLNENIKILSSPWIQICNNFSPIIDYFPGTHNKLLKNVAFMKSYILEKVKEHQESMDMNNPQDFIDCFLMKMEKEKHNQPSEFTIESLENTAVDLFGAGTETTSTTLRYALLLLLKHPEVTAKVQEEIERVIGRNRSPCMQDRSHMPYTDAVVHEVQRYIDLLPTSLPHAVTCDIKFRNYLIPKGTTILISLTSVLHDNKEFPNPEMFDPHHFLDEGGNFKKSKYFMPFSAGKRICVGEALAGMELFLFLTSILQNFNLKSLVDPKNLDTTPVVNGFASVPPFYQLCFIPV
Method: as §7, §8

c-Raf-1 = c-Raf-1 (Homo sapiens, UniProt P04049); assay: c-Raf-1 biochemical kinase inhibition (AlphaScreen, biotin-MEK1 substrate); conditions: 100 μM ATP
Sequence of c-Raf-1 (P04049 whole entry): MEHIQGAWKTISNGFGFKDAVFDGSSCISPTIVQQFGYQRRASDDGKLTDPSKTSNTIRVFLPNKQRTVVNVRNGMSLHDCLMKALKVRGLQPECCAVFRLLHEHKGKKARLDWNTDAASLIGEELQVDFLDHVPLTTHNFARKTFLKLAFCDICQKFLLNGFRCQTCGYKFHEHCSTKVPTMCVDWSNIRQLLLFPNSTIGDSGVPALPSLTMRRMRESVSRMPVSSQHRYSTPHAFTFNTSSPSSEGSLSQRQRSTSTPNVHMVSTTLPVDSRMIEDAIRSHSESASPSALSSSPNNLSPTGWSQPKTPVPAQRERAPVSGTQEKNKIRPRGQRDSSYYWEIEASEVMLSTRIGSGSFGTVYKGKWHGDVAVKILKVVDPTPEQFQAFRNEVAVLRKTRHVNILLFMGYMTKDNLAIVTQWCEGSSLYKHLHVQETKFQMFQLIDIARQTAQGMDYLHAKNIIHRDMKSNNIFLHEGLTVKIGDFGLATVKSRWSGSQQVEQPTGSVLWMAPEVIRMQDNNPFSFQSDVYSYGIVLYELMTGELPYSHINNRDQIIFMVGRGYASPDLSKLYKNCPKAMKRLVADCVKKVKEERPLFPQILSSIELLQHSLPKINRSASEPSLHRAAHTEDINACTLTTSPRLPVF
Method: as §9

B-Raf = B-Raf (Homo sapiens, UniProt P15056); assay: B-Raf biochemical kinase inhibition (AlphaScreen, biotin-MEK1 substrate); conditions: 100 μM ATP
Sequence of B-Raf (P15056 whole entry): as the sequence (P15056 whole entry V600E) above, with E600V counted along it
Method: as §9

CYP3A4(BFC) = CYP3A4(BFC) (Homo sapiens, UniProt P08684); assay: CYP3A4(BFC) inhibition (fluorescent substrate); assay type: in vitro ADME; conditions: read-out: Cyp IC50 3A4(BFC)
Sequence of CYP3A4(BFC) (P08684 whole entry): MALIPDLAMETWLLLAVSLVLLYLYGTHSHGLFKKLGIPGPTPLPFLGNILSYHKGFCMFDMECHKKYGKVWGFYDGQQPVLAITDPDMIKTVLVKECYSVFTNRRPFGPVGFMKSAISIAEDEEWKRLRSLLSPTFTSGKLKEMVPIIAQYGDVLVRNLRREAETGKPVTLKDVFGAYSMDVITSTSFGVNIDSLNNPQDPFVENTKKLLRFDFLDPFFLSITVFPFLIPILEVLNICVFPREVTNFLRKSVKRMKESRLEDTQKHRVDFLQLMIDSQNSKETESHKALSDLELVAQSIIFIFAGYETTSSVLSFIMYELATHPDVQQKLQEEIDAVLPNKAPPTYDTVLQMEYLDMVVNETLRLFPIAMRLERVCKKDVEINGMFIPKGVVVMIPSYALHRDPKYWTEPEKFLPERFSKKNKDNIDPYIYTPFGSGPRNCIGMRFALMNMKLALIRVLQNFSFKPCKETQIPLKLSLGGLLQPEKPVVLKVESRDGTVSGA
Method: as §8, with “CYP (Cytochrome P450) enzymes are the major drug metabolizing enzymes present in the liver. The inhibition of CYP enzyme activity (IC50) for each of CYP1A2, CYP2C19, CYP2C9, CYP2D6, CYP3A4(BFC) and CYP3A4(BQ) is determined for compounds, where inhibition of metabolism of a known substrate leads to a decrease in the fluorescence of the metabolized product. The fluorescence of the product is monitored as a function of compound concentration. Compounds” for “Compounds”

CYP1A2 = biological target: T1, CYP1A2 (Homo sapiens, UniProt P05177); assay: CYP1A2 inhibition (fluorescent substrate); assay type: in vitro ADME; conditions: CYP1A2, CEC substrate; read-out: Cyp IC50 1A2
T1 sequence (P05177 1-516): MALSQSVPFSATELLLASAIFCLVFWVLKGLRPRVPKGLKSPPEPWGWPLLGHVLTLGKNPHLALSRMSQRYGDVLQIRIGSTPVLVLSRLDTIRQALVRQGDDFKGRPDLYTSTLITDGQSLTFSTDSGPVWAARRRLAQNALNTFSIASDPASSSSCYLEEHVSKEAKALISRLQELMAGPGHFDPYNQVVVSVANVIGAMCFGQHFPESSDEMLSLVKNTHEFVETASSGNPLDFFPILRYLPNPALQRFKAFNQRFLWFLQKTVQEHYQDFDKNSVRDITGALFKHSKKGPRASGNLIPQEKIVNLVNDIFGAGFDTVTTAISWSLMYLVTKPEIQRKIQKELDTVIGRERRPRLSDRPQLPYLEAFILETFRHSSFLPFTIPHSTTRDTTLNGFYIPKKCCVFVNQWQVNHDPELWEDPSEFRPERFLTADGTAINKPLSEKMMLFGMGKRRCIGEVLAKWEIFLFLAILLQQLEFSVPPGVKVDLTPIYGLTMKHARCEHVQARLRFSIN
Method: as §7, §8

CYP3A4(BQ) = CYP3A4(BQ) (Homo sapiens, UniProt P08684); assay: CYP3A4(BQ) inhibition (fluorescent substrate); assay type: in vitro ADME; conditions: read-out: Cyp IC50 3A4(BQ)
Sequence of CYP3A4(BQ) (P08684 whole entry): as the sequence (P08684 whole entry) above
Method: as §8, with “CYP (Cytochrome P450) enzymes are the major drug metabolizing enzymes present in the liver. The inhibition of CYP enzyme activity (IC50) for each of CYP1A2, CYP2C19, CYP2C9, CYP2D6, CYP3A4(BFC) and CYP3A4(BQ) is determined for compounds, where inhibition of metabolism of a known substrate leads to a decrease in the fluorescence of the metabolized product. The fluorescence of the product is monitored as a function of compound concentration. Compounds” for “Compounds”

CYP2C19 = CYP2C19 (Homo sapiens, UniProt P33261); assay: CYP2C19 inhibition (fluorescent substrate); assay type: in vitro ADME; conditions: CYP2C19, CEC substrate; read-out: Cyp IC50 2C19
Sequence of CYP2C19 (P33261 whole entry): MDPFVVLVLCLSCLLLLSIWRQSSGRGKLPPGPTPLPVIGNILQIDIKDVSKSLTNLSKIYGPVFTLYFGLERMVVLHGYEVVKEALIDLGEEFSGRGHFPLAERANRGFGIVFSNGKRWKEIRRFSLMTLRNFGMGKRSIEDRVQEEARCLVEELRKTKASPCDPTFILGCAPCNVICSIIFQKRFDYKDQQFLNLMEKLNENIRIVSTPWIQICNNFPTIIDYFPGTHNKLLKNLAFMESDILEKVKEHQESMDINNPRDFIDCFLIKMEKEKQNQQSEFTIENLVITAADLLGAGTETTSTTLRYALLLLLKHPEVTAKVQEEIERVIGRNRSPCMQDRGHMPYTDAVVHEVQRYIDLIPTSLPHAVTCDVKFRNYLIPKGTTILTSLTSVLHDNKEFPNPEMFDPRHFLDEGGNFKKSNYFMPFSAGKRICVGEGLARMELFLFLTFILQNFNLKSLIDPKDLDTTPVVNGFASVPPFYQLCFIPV
Method: as §7, §8

[5] = tested on: COLO205 colon adenocarcinoma cells (B-Raf V600E); assay: COLO205 cell growth inhibition (ATPlite); assay type: cell-based; conditions: Homo sapiens, COLO 205, 72 h; COLO205, 3 days incubation
Method: as §1, §2, §3, §4, §5, §6

SMILES	IC50 [1] [µM]	turbidity threshold (L, M, H) 7.4 ([2]; HEPES pH 7.4)	turbidity threshold (L, M, H) 4.5 ([2]; SIF pH 4.5)	turbidity threshold (L, M, H) 6.8 ([2]; SIF pH 6.8)	turbidity threshold (L, M, H) 1.4 ([2]; buffer pH 1.4 (SGF))	IC50 [3] [µM]	IC50 [4] [µM]	IC50 (CYP2D6) [µM]	IC50 (B-Raf V600E) [µM]	IC50 (CYP2C9) [µM]	IC50 (c-Raf-1) [µM]	IC50 (B-Raf) [µM]	IC50 (CYP3A4(BFC)) [µM]	IC50 (CYP1A2) [µM]	IC50 (CYP3A4(BQ)) [µM]	IC50 (CYP2C19) [µM]	IC50 [5] [µM]
N#Cc1cnc2[nH]cc(C(=O)c3cccc(NS(=O)(=O)c4cccnc4)c3F)c2c1 [P-2086, Pyridine-3-sulfonic acid [3-(5-cyano-1H-pyrrolo[2,3-b]pyridine-3-carbonyl)-2-fluoro-phenyl]-amide]	< 10	H (high solubility if the threshold concentration is >250 μM)	M (moderate solubility if the threshold concentration is 31.3 μM to 250 μM)	M (moderate solubility if the threshold concentration is 31.3 μM to 250 μM)	M (moderate solubility if the threshold concentration is 31.3 μM to 250 μM)	> 10	> 10	–	–	–	–	–	–	–	–	–	–
CCCS(=O)(=O)Nc1ccc(F)c(C(=O)c2c[nH]c3ncc(-c4ccc(S(=O)(=O)C(C)C)cc4)cc23)c1F [P-2223, Propane-1-sulfonic acid (2,4-difluoro-3-{5-[4-(propane-2-sulfonyl)-phenyl]-1H-pyrrolo[2,3-b]pyridine-3-carbonyl}-phenyl)-amide]	–	–	–	–	–	–	–	> 10	< 0.01	> 10	< 0.01	< 0.01	> 10	> 10	> 10	> 10	–
O=C(c1c(F)ccc(NS(=O)(=O)c2cccnc2)c1F)c1c[nH]c2nccc(Cl)c12 [P-2074, Pyridine-3-sulfonic acid [3-(4-chloro-1H-pyrrolo[2,3-b]pyridine-3-carbonyl)-2,4-difluoro-phenyl]-amide]	< 5	–	–	–	–	> 10	> 10	–	–	–	–	–	–	–	–	–	< 10
CCCS(=O)(=O)Nc1ccc(F)c(C(=O)c2c[nH]c3ncc(-c4cnc(OCCCN(C)C)nc4)cc23)c1F [P-2203, Propane-1-sulfonic acid (3-{5-[2-(3-dimethylamino-propoxy)-pyrimidin-5-yl]-1H-pyrrolo[2,3-b]pyridine-3-carbonyl}-2,4-difluoro-phenyl)-amide]	< 1	–	–	–	–	> 10	–	–	< 0.01	–	–	< 0.01	–	–	–	–	–
